Like-named read-outs stand apart in the source and are kept apart here. No end group written: not given here.

Series [1] has as its target T1, TcdB (Clostridioides difficile, UniProt P18177). To be noted: Angie peptides 100 µM, α-defensin-6 6 µM, TcdB 50 ng in 25 µl PBS, 30 min, 37 °C, supernatant/pellet immunoblot; n = 3-4. In general terms: A western blot detects proteins with antibodies after separation by electrophoresis.
Protocol: For the precipitation analysis, TcdB (50 ng equals 2 ng/µl) and inhibitors, α-defensin-6 (6 µM) and Angie peptides or water (solvent control) were incubated for 30 min in a total volume of 25 µl PBS. Next, the samples were centrifuged for 20 min, 14,000 rpm at 4 °C for separation of supernatant and pellet fraction. […] TcdB was detected using an anti-TcdB antibody (1:1000, Anti-Clostridium difficile Toxin B antibody, Abcam, Cambridge, UK).
Series [2] addresses T1, TcdB. To be noted: 100 µM peptide, 200 pM TcdB, added simultaneously, FCS-free medium, 7 h, 37 °C; n = 9.
Target sequence in this assay (P18177 2-2366 limits assumed): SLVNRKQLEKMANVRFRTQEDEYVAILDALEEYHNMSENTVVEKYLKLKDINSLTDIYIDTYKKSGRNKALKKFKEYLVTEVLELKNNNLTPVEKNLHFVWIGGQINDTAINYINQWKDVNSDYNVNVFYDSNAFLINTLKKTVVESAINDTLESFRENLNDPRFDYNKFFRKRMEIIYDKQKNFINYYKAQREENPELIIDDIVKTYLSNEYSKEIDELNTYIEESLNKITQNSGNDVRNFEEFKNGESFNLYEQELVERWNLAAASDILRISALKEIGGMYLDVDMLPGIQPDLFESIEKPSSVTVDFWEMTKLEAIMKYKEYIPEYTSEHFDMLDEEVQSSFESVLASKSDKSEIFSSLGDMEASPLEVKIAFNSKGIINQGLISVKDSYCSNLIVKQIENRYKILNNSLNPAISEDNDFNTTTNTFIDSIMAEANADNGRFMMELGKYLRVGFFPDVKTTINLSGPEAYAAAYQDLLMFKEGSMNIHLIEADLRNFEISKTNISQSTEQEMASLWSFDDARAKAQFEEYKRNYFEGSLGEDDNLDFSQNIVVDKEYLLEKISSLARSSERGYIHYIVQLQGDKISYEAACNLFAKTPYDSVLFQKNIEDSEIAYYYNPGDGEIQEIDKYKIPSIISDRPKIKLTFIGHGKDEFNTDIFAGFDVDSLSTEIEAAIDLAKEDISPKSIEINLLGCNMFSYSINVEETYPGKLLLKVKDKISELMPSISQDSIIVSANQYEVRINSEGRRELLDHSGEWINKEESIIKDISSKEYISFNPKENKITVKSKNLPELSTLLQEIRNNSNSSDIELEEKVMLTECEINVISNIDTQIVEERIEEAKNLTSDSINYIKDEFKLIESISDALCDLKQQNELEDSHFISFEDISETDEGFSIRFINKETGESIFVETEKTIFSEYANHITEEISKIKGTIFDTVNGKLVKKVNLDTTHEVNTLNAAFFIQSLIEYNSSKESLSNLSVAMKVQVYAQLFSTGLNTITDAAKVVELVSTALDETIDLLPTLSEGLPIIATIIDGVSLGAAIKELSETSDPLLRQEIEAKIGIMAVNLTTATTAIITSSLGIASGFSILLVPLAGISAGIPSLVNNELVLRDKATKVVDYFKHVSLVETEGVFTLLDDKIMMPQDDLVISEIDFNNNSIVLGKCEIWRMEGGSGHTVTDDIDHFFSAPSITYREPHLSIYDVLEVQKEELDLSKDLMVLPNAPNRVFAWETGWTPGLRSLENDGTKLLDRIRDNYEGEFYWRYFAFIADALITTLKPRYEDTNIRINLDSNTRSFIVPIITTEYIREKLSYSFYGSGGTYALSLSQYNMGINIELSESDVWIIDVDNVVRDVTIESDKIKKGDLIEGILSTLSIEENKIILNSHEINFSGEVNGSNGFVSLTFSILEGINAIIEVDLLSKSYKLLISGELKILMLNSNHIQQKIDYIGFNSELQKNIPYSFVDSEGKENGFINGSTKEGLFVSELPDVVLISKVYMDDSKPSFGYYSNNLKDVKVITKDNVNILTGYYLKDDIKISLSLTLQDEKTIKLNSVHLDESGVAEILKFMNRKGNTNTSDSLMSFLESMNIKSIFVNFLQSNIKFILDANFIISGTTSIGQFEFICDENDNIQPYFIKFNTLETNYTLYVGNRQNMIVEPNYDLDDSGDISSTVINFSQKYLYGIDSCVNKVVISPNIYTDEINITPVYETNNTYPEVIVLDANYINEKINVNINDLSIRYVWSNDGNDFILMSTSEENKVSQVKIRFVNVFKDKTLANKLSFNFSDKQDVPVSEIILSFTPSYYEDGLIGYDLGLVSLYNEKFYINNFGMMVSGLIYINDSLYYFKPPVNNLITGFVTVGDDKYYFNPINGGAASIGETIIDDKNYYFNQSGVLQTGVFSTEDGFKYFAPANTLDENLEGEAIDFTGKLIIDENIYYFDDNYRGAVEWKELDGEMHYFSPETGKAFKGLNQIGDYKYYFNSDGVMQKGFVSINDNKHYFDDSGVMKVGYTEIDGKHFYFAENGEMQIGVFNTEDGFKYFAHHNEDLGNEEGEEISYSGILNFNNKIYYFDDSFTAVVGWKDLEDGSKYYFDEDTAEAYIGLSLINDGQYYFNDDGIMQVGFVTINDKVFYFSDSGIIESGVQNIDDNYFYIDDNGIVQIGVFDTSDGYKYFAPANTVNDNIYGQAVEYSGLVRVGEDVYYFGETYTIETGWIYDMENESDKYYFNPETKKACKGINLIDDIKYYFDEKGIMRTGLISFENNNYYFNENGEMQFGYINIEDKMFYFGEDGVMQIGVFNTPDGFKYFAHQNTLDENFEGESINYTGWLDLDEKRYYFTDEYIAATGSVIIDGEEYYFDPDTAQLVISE
In series [3] the target is T1, TcdB. Description: cell-based.
Target sequence in this assay (P18177 2-2366 limits assumed): as above
A short description of another series: in vitro. The series is classed as in vitro ADME, human. As to conditions: 37 °C. As to the method:
The half-life of Angie 5 in plasma was calculated according to a work by Freisem et al., with minor modifications. A sample (0.5 ml) of human plasma was spiked with 20 µM Angie 5 and incubated at 37 °C. Aliquots (50 µl) were separated at 0, 15, 30, 60, and 120 min, respectively, and mixed with 250 µl 0.1% TFA in acetonitrile at − 20 °C. The mixture was centrifuged at 13,000 rpm for 30 s, and 150 µl of the supernatant was mixed with 150 µl 20% acetic acid in ice. The samples were analyzed with an Axima Confidence MALDI-TOF MS (Shimadzu) in linear mode using exactly the same measurement conditions for all samples spotted on a 384-well plate. Wells were coated with 0.5 µl of 10 mg/ml CHCA previously dissolved in TFA/water/acetonitrile/2-propanol (2.5/47.5/25/25, v/v), and the solvent was allowed to evaporate. Then, each sample (0.5 µl), previously mixed with matrix (0.5 µl), was applied onto the dry pre-coated well, and the solvent was allowed to evaporate. Laser shots were automatically done following a regular circular raster of a diameter of 2000 μm and spacing of 200 μm on each well; 100 profiles were acquired per sample, and 20 shots were accumulated per profile. An accelerating voltage of 20 kV was applied to the ion source. […] The half-life was calculated using GraphPad Prism version 10.3.1 for Windows, GraphPad Software, Boston, Massachusetts USA, www.graphpad.com. […]

The next series relates to zebrafish embryos. To be noted: in vivo; cited from earlier work.
The subject of another series is C. difficile. To be noted: previously shown; cited from earlier work. The protocol:
Here, initially higher concentrations of the Angie peptides were tested and inhibition zones around the Angie peptides and the positive control were measured (Supplementary Fig. 1).

Take “α-defensin-6: human peptide, positive control for precipitation of TcdB (PeptaNova)”: the “Precipitate formation with TcdB” value with TcdB [1] is reported as “precipitate formation”.

Turning to KLINTFIHGNKRSIKAI [Angie 7], the “Protection from TcdB-mediated cell rounding, CaCo-2 cells” value (“Protection” below) at TcdB [2] is recorded as “did not inhibit”.

As usually defined, the IC50 is the concentration needed to halve the response being measured. High values mean weaker potency, low ones greater potency. Usually half-life stands for how long it takes for the measured level to halve. Low readings indicate rapid decline, high ones slow decline. As to KFINIFIHGNKRSIKAI [Angie 5], the IC50 against TcdB [3] turned out to be 46.3 µM; against TcdB [3] (IC50 of TcdB-mediated cell rounding, Vero cells, 10 pM TcdB, no preincubation, 3 h after addition, FCS-free medium, ± SEM 1.08 µM, four-parameter fit), 40.9 µM. Further, the “Protection” value on TcdB [2] is recorded as “protected”. Besides, the “K of one-phase decay curve in human plasma” value in the series “in vitro” (fit of signal area vs. time, human plasma, 20 µM, MALDI-TOF) was 0.1274. In “in vitro” (human plasma spiked with 20 µM, aliquots at 0, 15, 30, 60, 120 min, 0.1% TFA in acetonitrile, MALDI-TOF MS peak area, one-phase decay fit, n = 3 per time point), this substance gave a half-life at 20 µM of 5.44 min.

Regarding KAINTFIHGNKISIKAI [Angie 1], the “Toxicity for zebrafish embryos” value in the series with zebrafish embryos is on record as “not toxic”.

Turning to KGINTFIHGNKRSIKAI [Angie 6], the “Protection” value at TcdB [2] is on record as “did not inhibit”.

For the substance KDINTFIHGNKRSIKAI [reference Angie], the “Protection” value on TcdB [2] is “did not inhibit”.

“LL-37: antimicrobial peptide used as positive control in the radial diffusion assay (Anaspec) (LLGDFFRKSKEKIGKEFKRIVQRIKDFLRNLVPRTES; Antibacterial peptide LL-37; UniProt P49913 134-170, looked up)”: the “Activity against C. difficile” value in the series with C. difficile was “activity against C. difficile”.

The values above are taken from publication PMC12209146 (Cellular and Molecular Life Sciences: CMLS, 2025).
